Assay results as given in patent US8236818B2, “Substituted imidazopyridine derivatives as melanocortin-4 receptor antagonists” (Santhera Pharmaceuticals (Schweiz) AG, priority 2007, dated 2012).

Assays:
melanocortin-4 receptor [1] = target: T1, melanocortin-4 receptor (Homo sapiens, UniProt P32245); experiment: Membrane binding assay (fluorescence polarization, competition with fluorescence labeled NDP-alpha-MSH); settings: read-out: hMC-4R binding assay IC50/μM
T1 construct: expressed in transfected cells; host or cells: HEK293 cells (membrane preparations)

melanocortin-4 receptor [2] = target: T1, melanocortin-4 receptor; experiment: Functional assay (cAMP fluorescence polarization, membrane based, agonistic activity); type: biochemical; settings: 2 h; read-out: % activation functional assay

T1 sequence (P32245 whole entry): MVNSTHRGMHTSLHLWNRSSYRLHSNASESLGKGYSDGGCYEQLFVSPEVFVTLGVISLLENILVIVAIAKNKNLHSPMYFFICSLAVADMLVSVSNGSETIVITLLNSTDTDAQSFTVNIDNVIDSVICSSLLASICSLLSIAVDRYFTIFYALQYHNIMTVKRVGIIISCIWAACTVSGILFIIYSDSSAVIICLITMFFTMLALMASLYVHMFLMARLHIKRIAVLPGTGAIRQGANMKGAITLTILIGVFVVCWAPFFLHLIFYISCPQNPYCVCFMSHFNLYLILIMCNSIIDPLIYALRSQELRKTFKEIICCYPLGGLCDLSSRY

Structure (SMILES) | IC50 (melanocortin-4 receptor [1]) | Emax (melanocortin-4 receptor [2])
CC(C)CCN(CCC(C)C)C(=O)c1ccc2nc(-c3ccc(Cl)cc3)c(CN3CCCC(N)C3)n2c1 (stereo not shown) [Example 126] | > 1 µM | 0%
CC(C)CCN(CCC(C)C)C(=O)c1ccc2nc(-c3ccc(Cl)cc3)c(CN3CCN4CCCC4C3)n2c1 (stereo not shown) [Example 128] | > 1 µM | 0%
COc1ccc(-c2nc3ccc(C(=O)N(CCC(C)C)CCC(C)C)cn3c2CN2CCC(N(C)C)CC2)c(OC)c1 [Example 129] | > 1 µM | 0%
COc1ccc(OC)c(-c2nc3ccc(C(=O)N(CCC(C)C)CCC(C)C)cn3c2CN2CCC(N(C)C)CC2)c1 [Example 130] | > 1 µM | 0%
CC(C)CCN(CCC(C)C)C(=O)c1ccc2nc(-c3nccs3)c(CN3CCC(N)CC3)n2c1 [Example 135] | > 1 µM | 0%
COc1ccc(-c2nc3ccc(C(=O)N(CCC(C)C)CCC(C)C)cn3c2CN2CCC(N)CC2)cc1OC [Example 139] | 0.1 to 1 µM | 0%
COc1ccc(-c2nc3ccc(C(=O)N(CCC(C)C)CCC(C)C)cn3c2CN2CCC(N)CC2)cc1 [Example 140] | 0.1 to 1 µM | 0%
CCCN(CC1CC1)C(=O)c1ccc2nc(-c3ccc(C#N)cc3)c(CCCN3CCCC3)n2c1 [Example 141] | 0.1 to 1 µM | 0%
CC(C)CN(CC(C)C)C(=O)c1ccc2nc(-c3ccc(C#N)cc3)c(CCCN3CCCC3)n2c1 [Example 144] | 0.1 to 1 µM | 0%
CC(C)CC1CCCN1C(=O)c1ccc2nc(-c3ccc(C#N)cc3)c(CCCN3CCCC3)n2c1 (stereo not shown) [Example 146] | 0.1 to 1 µM | 0%
CCCC1CCCN1C(=O)c1ccc2nc(-c3ccc(C#N)cc3)c(CCCN3CCCC3)n2c1 (stereo not shown) [Example 147] | > 1 µM | 0%
O=C(c1ccc2nc(-c3ccc(=O)[nH]c3)c(CCCN3CCCC3)n2c1)N(CCC1CC1)CCC1CC1 [Example 148] | 0.1 to 1 µM | -12%
CC(C)CCN(CCC(C)CO)C(=O)c1ccc2nc(-c3ccc(=O)[nH]c3)c(CCCN3CCCC3)n2c1 (stereo not shown) [Example 149] | 0.1 to 1 µM | 0%
CC(C)CCN(CC(C)C)C(=O)c1ccc2nc(-c3ccc(C#N)cc3)c(CN3CCC(N)CC3)n2c1 [Example 150] | 0.1 to 1 µM | 0%

Continued, values first:

IC50 (melanocortin-4 receptor [1]) | Emax (melanocortin-4 receptor [2]) | Structure (SMILES)
0.1 to 1 µM | 0% | CC(C)CCN(CCC(C)C)C(=O)c1ccc2nc(-c3ccc(-c4ccccn4)s3)c(CN3CCC(N)CC3)n2c1 [Example 124]
0.1 to 1 µM | 0% | CC(C)CCN(CCC(C)C)C(=O)c1ccc2nc(-c3cccs3)c(CN3CCC(N)CC3)n2c1 [Example 125]
0.1 to 1 µM | 0% | CC(C)CCN(CCC(C)C)C(=O)c1ccc2nc(-c3ccc(Cl)cc3)c(CN3C[C@H]4CNC[C@H]4C3)n2c1 [Example 127]
< 0.1 µM | 0% | CC(C)CCN(CCC(C)C)C(=O)c1ccc2nc(-c3ccc(Cl)c(Cl)c3)c(CN3CCC(N(C)C)CC3)n2c1 [Example 131]
0.1 to 1 µM | 0% | CC(C)CCN(CCC(C)C)C(=O)c1ccc2nc(-c3ccccc3)c(CN3CCC(N)CC3)n2c1 [Example 133]
0.1 to 1 µM | 0% | CC(C)CCN(CCC(C)C)C(=O)c1ccc2nc(-c3ccc(C(F)(F)F)cc3)c(CN3CCC(N)CC3)n2c1 [Example 134]
0.1 to 1 µM | 0% | CC(C)CCN(CCC(C)C)C(=O)c1ccc2nc(-c3ccc4c(c3)CCC(=O)N4)c(CN3CCC(N)CC3)n2c1 [Example 136]
0.1 to 1 µM | 0% | CC(C)CCN(CCC(C)C)C(=O)c1ccc2nc(-c3ccc4c(c3)NC(=O)CO4)c(CN3CCC(N)CC3)n2c1 [Example 137]
0.1 to 1 µM | 0% | CC(C)CCN(CCC(C)C)C(=O)c1ccc2nc(-c3ccc(C#N)cc3)c(CN3CCC(N)CC3)n2c1 [Example 138]
< 0.1 µM | 0% | CCCCN(CCCC)C(=O)c1ccc2nc(-c3ccc(C#N)cc3)c(CCCN3CCCC3)n2c1 [Example 142]
< 0.1 µM | 0% | CC(C)CCN(CCC1CC1)C(=O)c1ccc2nc(-c3ccc(C#N)cc3)c(CCCN3CCCC3)n2c1 [Example 143]
< 0.1 µM | 0% | N#Cc1ccc(-c2nc3ccc(C(=O)N(CCC4CC4)CCC4CC4)cn3c2CCCN2CCCC2)cc1 [Example 145]
